Experimental data from patent publication US6964959B2, “Use of a methylol-containing compound to treat tumors” (Carter Wallace, Inc., priority 1999, dated 2005).
“Also recorded” adds a separate entry of the source.

Legend:
[1] = tested on: normal murine bone marrow cultures; test: Cytotoxic and apoptotic activity in normal murine bone marrow cultures; type: cell-based
Source text: (§1) This observation was confirmed using normal (non-tumor) primary cells derived from animals, which are known to be free of tumors.

PA-1 [2] = test: Cell growth inhibition, PA-1 ovarian tumor cells; type: cell-based; details: Homo sapiens, PA-1, 72 h, PA-1 (ovary); 3 d exposure; cell number
Experimental: One ml of this cell suspension was added to each well of a 12 well cell culture plate that contained 3 ml of appropriate media plus serum. […] Control wells received 40 μl of 5% Kollidon 17PF alone. Seventy-two hours later, all cells were harvested by trypsinization and cell number determined electronically using a Coulter Model Z1 particle counter (Coulter Corp., Miami, Fla.) to assess cell growth inhibition. Each experiment was performed in duplicate and repeated a minimum of three times.
Cells were seeded at a density of 1-5×10^4 cells in each well of a 6 well tissue culture flask. […] After three days, cells were harvested by trypsinization and cell number determined electronically. Cell growth inhibition was determined by comparison to non-Taurolidine exposed control cultures. The IC50 was calculated as the concentration required to inhibit cell number by 50%.

PA1 human ovarian cells = test: DNA fragmentation, PA1 human ovarian cells; type: cell-based
Source text: (§2) This DNA fragmentation was not observed in normal 3T3 cells.

SKOV-3 = test: Flow cytometry cell cycle distribution / DNA debris, SKOV-3; type: cell-based, human; details: 48 h exposure
Experimental: Three×10^5 cells were seeded in plastic tissue culture flasks. […] Control cultures received an appropriate volume of Kollidine-17P. […] The percentage of DNA debris in the sub-G0/G1 region was assessed using cytofluorometric techniques. Each bar represents the mean (±SE) of three determinations. **p≦0.01, ***p≦0.001, ****p≦0.0001
For flow cytometry studies, 1×10^6 PA-1, SKOV-3, or NIH-3T3 cells were incubated for 24 h in appropriate media containing serum. […] Control cultures for each cell line were incubated in media containing 40 μl of 5% Kollidon 17PF alone. Forty-eight hours later, all cells were harvested by trypsinization and prepared for cytofluorometric analysis by standard methods. For example, harvested cells were resuspended in ice cold phosphate-buffered saline at a final cell density of 2×10^6 cells/ml. The cells then were stained for 30 min at room temperature in the dark with a solution of 0.05 mg/ml propidium iodide, 0.6% Igepal, and 1% sodium citrate. Flow cytometry was performed by FACScan (Becton Dickinson, Plymouth, England) using the ModFit LT program (Becton Dickinson). […]
Three×10^5 cells were seeded in plastic tissue culture flasks. […] After an additional 48 h, cells were harvested, stained with propidium iodide, and cell cycle distribution assessed using cytofluorometric techniques. […]

[3] = tested on: activated human T-cell cultures; test: Cytotoxic and apoptotic activity in activated human T-cell cultures; type: cell-based
Source text: as §1

PA-1 [4] = test: Flow cytometry cell cycle distribution / DNA debris, PA-1; type: cell-based, human
Experimental: Three×10^5 cells were seeded in plastic tissue culture flasks. […] Control cultures received an appropriate volume of Kollidine-17P. […] The percentage of DNA debris in the sub-G0/G1 region was assessed using cytofluorometric techniques.
For flow cytometry studies, 1×10^6 PA-1, SKOV-3, or NIH-3T3 cells were incubated for 24 h in appropriate media containing serum. […] Control cultures for each cell line were incubated in media containing 40 μl of 5% Kollidon 17PF alone. Forty-eight hours later, all cells were harvested by trypsinization and prepared for cytofluorometric analysis by standard methods. For example, harvested cells were resuspended in ice cold phosphate-buffered saline at a final cell density of 2×10^6 cells/ml. The cells then were stained for 30 min at room temperature in the dark with a solution of 0.05 mg/ml propidium iodide, 0.6% Igepal, and 1% sodium citrate. Flow cytometry was performed by FACScan (Becton Dickinson, Plymouth, England) using the ModFit LT program (Becton Dickinson). Statistical analysis was performed with the Kruskal Wallis non-parametric ANOVA test followed by Dunn's multiple comparisons test using Instat.
Three×10^5 cells were seeded in plastic tissue culture flasks. […] Control cultures received an appropriate volume of Kollidine-17P. After an additional 48 h, cells were harvested, stained with propidium iodide, and cell cycle distribution assessed using cytofluorometric techniques. Each value represents the percentage of cells in the noted cell cycle phases and is the mean±SEM of three determinations.

[5] = tested on: HL-60 human promyelocytic cell line; test: Apoptosis induction in HL-60 cells; type: cell-based; details: non-adherent cancer cell models
[6] = Clinical tolerability in ovarian tumor and glioblastoma patients; type: in vivo, human; details: i.p. lavage after surgery for recurrent ovarian tumors; systemic in glioblastoma
Experimental: Taurolidine was administered by i.p. lavage immediately following surgery for removal of recurrent ovarian tumors. For patients with glioblastoma, Taurolidine was administered systemically.
Taurolidine was administered by i.p. lavage immediately following surgery for removal of recurrent ovarian tumors. For patients with glioblastoma, taurolidine was administered systemically.

3T3 cells = test: DNA fragmentation, normal 3T3 cells; type: cell-based
Source text: as §2

PARP = test: Western-blot analysis of PARP cleavage, SKOV-3 cells; type: cell-based, human; details: 24 h exposure to 50 or 100 μM
Experimental: Two×10^6 cells were seeded in 150 cm^2 tissue culture flasks. […] After an additional twenty-four hours, cells were harvested, cell number determined, and aliquots derived from equal cell numbers generated from each exposure condition. Total proteins from these whole cell lysates were separated by SDS-PAGE and transferred to nitrocellulose filters. Filters were then immunoblotted to detect intact PARP protein and cleavage fragments by using the clone C-2-10 mouse monoclonal anti-PARP antibody (Zymed Laboratories, San Francisco, Calif.). The resulting protein-antibody complexes were visualized by chemiluminescence techniques.
Western-blot analysis was used to assess of PARP cleavage. Two×10^6 cells were seeded into separate 75 cm^2 tissue culture flasks containing 20 ml of tissue culture media plus serum. […] Twenty-four hours after the addition of Taurolidine, cells were harvested, cell number determined, and aliquots containing an equal cell number were generated from each exposure condition. Total proteins from whole cell lysates generated from these aliquots were separated by SDS-PAGE and electrotransferred to nitrocellulose filters. Filters were then processed to detect intact PARP protein and cleavage fragments by using the clone C-2-10 mouse monoclonal anti-PARP antibody (Zymed Laboratories, San Francisco, Calif.). […]

glioblastoma multiforma = test: Clinical use in patients with advanced recurrent glioblastoma multiforma; type: in vivo, human
Experimental: Four patients, which were diagnosed with advanced recurrent glioblastoma multiforma, were treated with taurolidine. The prognosis for this group of patients was determined to be approximately 8 weeks of survival.

[7] = Taurolidine-induced toxicity in athymic (nude) female mice; type: in vivo; details: for mortality (%): i.p., three consecutive days, nude female mice
Experimental: Control animals received 1 ml injections of 5% Kollidon 17PF alone. Animals were examined daily and body weight recorded twice weekly. A reduction in body weight of greater than 10% was considered significant. The maximally tolerated dose (MTD) was considered to be the dose which produced ˜10% mortality.
During the injection regimen, and daily thereafter for 30 d, mice were weighed and examined. Experiments were repeated a minimum of three times and mortality and weight loss data pooled.

Compound: O=S1(=O)CCN(CN2CCS(=O)(=O)NC2)CN1 [Taurolidine, Bis-(1,1-dioxoperhydro-1,2,4-thiadiazinyl-4)methane]
- concentrations required to inhibit cell proliferation ([1]; normal murine bone marrow): concentrations in the mM range
- induction of apoptosis ([1]; normal murine bone marrow cultures): did not produce cellular changes consistent with the induction of apoptosis
- IC50 (PA-1 [2]): ~10 µM
- DNA fragmentation (PA1 human ovarian cells; PA1, 24-hour exposure): induced a high degree of DNA fragmentation
- DNA fragmentation by agarose-gel electrophoresis (PA1 human ovarian cells; ovarian tumor cells, 50 μM): overt DNA fragmentation
- effect on cell cycle distribution (SKOV-3): reduced the percentage of cells in the G0/G1-phase and increased the percentage of cells in both S and G2/M; also recorded: concentration-dependent decrease in the percentage of cells in G0/G1 but increased the percentage of cells in both the S-phase and G2/M
- DNA debris in the sub-G0/G1 region (SKOV-3; 25-100 μM): significantly increased DNA debris; also recorded: resulted in the appearance of DNA debris
- induction of apoptosis [3]: did not produce cellular changes consistent with the induction of apoptosis
- cell cycle kinetics and distribution (PA-1 [4]; PA1, 24-hour exposure): significantly reduced the percentage of cells in both the S- and G2/M-phases
- effect on cell cycle distribution (PA-1 [4]; PA-1, 48 h exposure, up to 100 μM): little effect on the cell cycle; also recorded: little effect on cell cycle distribution
- DNA debris in the sub-G0/G1 region (PA-1 [4]; PA-1, 48 h exposure, 25-100 μM): significantly increased DNA debris; also recorded: resulted in the appearance of DNA debris
- apoptotic signalling events after exposure [5]: activation of caspases 3, 8 and 9
- tolerability in patients [6]: well tolerated
- DNA fragmentation (3T3 cells; 3T3, 24-hour exposure): not observed
- DNA fragmentation by agarose-gel electrophoresis (3T3 cells; 3T3 cells, identical regimen (50 μM)): not apparent
- PARP cleavage (PARP): induced PARP cleavage; also recorded: resulted in PARP cleavage
- patients in whom the tumor mass decreased or stayed the same (glioblastoma multiforma; 20 g infused intravenously over 6 hours twice a week, at least one 5 week regimen, four patients): 3 out of the 4
- survival (glioblastoma multiforma; at 14 weeks after the initiation of therapy, prognosis approximately 8 weeks): each of the patients remains alive
- mortality (%) ([7]; 10 mg/mouse/inj): 6%
- mortality (%) ([7]; 20 mg/mouse/inj): 13%
- mortality (%) ([7]; 25 mg/mouse/inj): 47%
- mortality (%) ([7]; 30 mg/mouse/inj): 100%
- tolerability ([7]; daily doses below 15 mg/mouse (˜650 mg/kg), 3 d i.p. bolus regimen): well-tolerated
